Test results published in patent US11352354B2, “Substituted penta-fused hexa-heterocyclic compounds, preparation method therefor, drug combination and use thereof” (Xiamen University, priority 2017, dated 2022).
“Also recorded” adds a separate entry of the source.

Tests used:
MDA-MB-231 cells = assay: Vacuolation of MDA-MB-231 cells caused by inhibition of compounds on PIKfyve (microscopy); type: cell-based; settings: MDA-MB-231 cells; further: key: '+' represents the degree of vacuolation; ++: more '+' indicates more obvious vacuolation; +++: more '+' indicates more obvious vacuolation; ++++: more '+' indicates more obvious vacuolation; '−' represents no vacuolation
How it was run: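 MDA-MB-231 cells in 12-well plates at 37 °C, 5% CO2 were observed by microscopy after 24 and 48 h of culture for cytoplasmic vacuolation as a readout of PIKfyve inhibition. Scoring was semi-quantitative, from − (none) to increasing +.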

JeKo-1 cells [1] = assay: Tumor cell growth inhibition by MTS method, JeKo-1; type: cell-based; settings: Homo sapiens, JeKo-1, 120 h, 5 days of culture
How it was run: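 Cells seeded at 20000 per well, treated with 8-point 3-fold dilutions from 10 mM DMSO stock in triplicate, 0.1% DMSO controls. MTS read at OD490; IC50 from inhibition rates, or % inhibition at 10 μM.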

A375 = assay: Tumor cell growth inhibition by MTS method, A375; type: cell-based; settings: Homo sapiens, A-375; A375, 3.3 μM; read-out: Inhibition rate %
Procedure: (§1) III. Determination of IC50 Value of Compound for Inhibiting Tumor Cell Growth by MTS Method
(§2) 1. Cell plating: cells in logarithmic growth phase were counted and inoculated in a 96-well plate (20000 cells per well).
(§3) 2. Administrating agent to cell: 10 mM compound mother solution in DMSO was subjected to 3 fold-gradient dilution, to set 8 concentrations, which were then added to various wells, with three replicates for each concentration, and three blank wells (only culture medium) and three negative controls (containing 0.1% DMSO) on each plate.
(§4) 3. […] The OD value at 490 nm was measured with microplate reader OD490. The cell growth inhibition rate was calculated by the following formula: Cell growth inhibition rate %=1−(ODexperimental group−ODblank group)/(ODnegative group−ODblank group)×100%

SK-MEL-28 = assay: Tumor cell growth inhibition by MTS method, SK-MEL-28; type: cell-based; settings: Homo sapiens; SK-MEL-28, 3.3 μM; read-out: Inhibition rate %
Procedure: as §1, §2, §3, §4

SK-MEL-30 = assay: Tumor cell growth inhibition by MTS method, SK-MEL-30; type: cell-based; settings: Homo sapiens; SK-MEL-30, 3.3 μM; read-out: Inhibition rate %
Procedure: as §1, §2, §3, §4

A549 = assay: Tumor cell growth inhibition by MTS method, A549; type: cell-based; settings: Homo sapiens; A549, 3.3 μM; read-out: Inhibition rate %
Procedure: as §1, §2, §3, §4

MDA-MB-231 = assay: Tumor cell growth inhibition by MTS method, MDA-MB-231; type: cell-based; settings: Homo sapiens; MDA-MB-231, 3.3 μM; read-out: Inhibition rate %
Procedure: as §1, §2, §3, §4

MDA-MB-435S = assay: Tumor cell growth inhibition by MTS method, MDA-MB-435S; type: cell-based; settings: Homo sapiens, read-out: Inhibition rate %
Procedure: as §1, §2, §3, §4

MCF-7 = assay: Tumor cell growth inhibition by MTS method, MCF-7; type: cell-based; settings: Homo sapiens, MCF7; MCF-7, 3.3 μM; read-out: Inhibition rate %
Procedure: as §1, §2, §3, §4

HCT116 = assay: Tumor cell growth inhibition by MTS method, HCT116; type: cell-based; settings: Homo sapiens, HCT-116; HCT116, 3.3 μM; read-out: Inhibition rate %
Procedure: as §1, §2, §3, §4

BGC823 = assay: Tumor cell growth inhibition by MTS method, BGC823; type: cell-based; settings: Homo sapiens, BGC-823; BGC823, 3.3 μM; read-out: Inhibition rate %
Procedure: as §1, §2, §3, §4

HepG2 = assay: Tumor cell growth inhibition by MTS method, HepG2; type: cell-based; settings: Homo sapiens; HepG2, 3.3 μM; read-out: Inhibition rate %
Procedure: as §1, §2, §3, §4

MDA-MB-231 xenograft = assay: Xenograft model of triple negative breast cancer cells (MDA-MB-231) in nude mice; type: in vivo
Procedure: 1. 4-6 weeks old female nude mice were injected subcutaneously with about 5×10^6 MDA-MB-231 cells;
2. When tumor volume (length×width×height×0.5) reached about 100 mm^3, the mice were randomly divided into three groups: control group, group with a dose of 5 mg/kg once a day, and group with a dose of 20 mg/kg once a day, and the initial tumor volume was recorded.
3. The drug or the control solvent was administered intravenously on time every day, the tumor volume was measured every day, and the procedures were continued for 12 days;
(§5) 4. In the last day, the mice were killed 6 hours after administration, the tumor grown under skin was completely peeled off, and the tumor weight was recorded.

JeKo-1 cells [2] = assay: Lysosomal dysfunction caused by inhibition of PIKfyve, Western Blot of cathepsins in JeKo-1 cells; type: cell-based; settings: treatment for 24 hr, FIG. 3
Text: V. Lysosomal Dysfunction Caused by Inhibition of Compound V-c-17 on PIKfyve (FIG. 3)
After treatment with V-c-17 for 24 hr, JeKo-1 cells were lysed and tested by Western Blot. […] This was similar to the treatment result with the known PIKfyve inhibitor apilimod.

PIKfyve protein = PIKfyve protein (Homo sapiens (Human), UniProt Q9Y2I7); assay: Dissociation equilibrium constant (Kd) of compound and PIKfyve protein, DiscoverX KINOMEscan; type: binding; settings: eleven 3-fold dilutions, curve fitting
PIKfyve protein, sequence (Q9Y2I7 whole entry): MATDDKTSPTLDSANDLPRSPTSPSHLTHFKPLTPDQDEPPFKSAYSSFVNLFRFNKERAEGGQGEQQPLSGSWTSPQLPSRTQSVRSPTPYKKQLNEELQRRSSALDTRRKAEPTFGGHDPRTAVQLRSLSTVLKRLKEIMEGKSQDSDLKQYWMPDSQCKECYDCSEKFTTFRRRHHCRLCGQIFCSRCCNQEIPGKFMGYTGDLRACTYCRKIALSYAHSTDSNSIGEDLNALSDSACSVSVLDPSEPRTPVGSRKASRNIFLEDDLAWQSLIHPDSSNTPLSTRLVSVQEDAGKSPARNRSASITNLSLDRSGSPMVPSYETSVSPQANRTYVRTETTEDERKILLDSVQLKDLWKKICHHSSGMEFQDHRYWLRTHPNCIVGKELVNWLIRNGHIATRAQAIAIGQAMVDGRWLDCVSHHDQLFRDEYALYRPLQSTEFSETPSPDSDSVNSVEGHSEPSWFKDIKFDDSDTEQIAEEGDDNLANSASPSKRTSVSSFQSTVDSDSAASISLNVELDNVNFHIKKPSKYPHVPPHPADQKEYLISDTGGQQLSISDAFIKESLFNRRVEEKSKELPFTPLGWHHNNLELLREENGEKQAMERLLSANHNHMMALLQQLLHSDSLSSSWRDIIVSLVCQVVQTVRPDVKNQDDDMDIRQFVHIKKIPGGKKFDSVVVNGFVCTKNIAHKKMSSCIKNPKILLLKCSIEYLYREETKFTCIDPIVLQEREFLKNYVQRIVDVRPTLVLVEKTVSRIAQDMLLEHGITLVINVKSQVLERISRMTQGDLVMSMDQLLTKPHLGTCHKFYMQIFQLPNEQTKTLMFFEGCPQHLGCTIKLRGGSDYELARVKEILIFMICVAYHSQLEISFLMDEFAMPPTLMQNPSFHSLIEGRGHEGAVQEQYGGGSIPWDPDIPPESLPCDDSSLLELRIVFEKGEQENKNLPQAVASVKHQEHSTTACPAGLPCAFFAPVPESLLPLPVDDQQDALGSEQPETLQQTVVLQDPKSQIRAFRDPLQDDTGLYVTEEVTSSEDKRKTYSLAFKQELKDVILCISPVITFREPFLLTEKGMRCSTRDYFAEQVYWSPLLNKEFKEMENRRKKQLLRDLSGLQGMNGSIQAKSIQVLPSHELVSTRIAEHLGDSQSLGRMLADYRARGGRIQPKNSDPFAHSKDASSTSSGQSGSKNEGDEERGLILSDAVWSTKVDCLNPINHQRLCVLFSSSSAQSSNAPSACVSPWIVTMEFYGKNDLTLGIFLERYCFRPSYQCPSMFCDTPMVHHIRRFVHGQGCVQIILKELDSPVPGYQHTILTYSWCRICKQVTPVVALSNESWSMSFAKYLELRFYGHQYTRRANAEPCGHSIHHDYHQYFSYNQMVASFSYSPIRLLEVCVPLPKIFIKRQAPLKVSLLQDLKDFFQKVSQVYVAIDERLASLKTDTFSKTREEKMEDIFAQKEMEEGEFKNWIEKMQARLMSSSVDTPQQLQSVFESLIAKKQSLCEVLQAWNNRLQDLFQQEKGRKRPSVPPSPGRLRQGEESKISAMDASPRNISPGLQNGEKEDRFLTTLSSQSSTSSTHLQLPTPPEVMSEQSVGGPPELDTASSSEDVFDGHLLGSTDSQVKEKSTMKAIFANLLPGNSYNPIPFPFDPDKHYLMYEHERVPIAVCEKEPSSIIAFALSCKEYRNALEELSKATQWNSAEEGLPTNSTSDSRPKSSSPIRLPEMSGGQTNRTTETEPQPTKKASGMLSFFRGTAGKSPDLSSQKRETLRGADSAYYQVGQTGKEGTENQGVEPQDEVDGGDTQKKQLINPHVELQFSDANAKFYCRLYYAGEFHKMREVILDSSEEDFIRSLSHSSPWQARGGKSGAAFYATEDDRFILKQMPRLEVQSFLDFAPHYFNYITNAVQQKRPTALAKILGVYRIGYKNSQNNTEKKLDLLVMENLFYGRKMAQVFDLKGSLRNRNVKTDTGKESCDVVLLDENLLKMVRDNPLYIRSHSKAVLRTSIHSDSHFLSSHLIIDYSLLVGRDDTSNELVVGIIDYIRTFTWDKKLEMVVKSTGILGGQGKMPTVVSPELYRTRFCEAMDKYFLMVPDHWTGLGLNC
Procedure: II. Determination of Dissociation Equilibrium Constant (Kd Value) of Compound and PIKfyve Protein
The Kd value was determined by DiscoverX's KINOMEscan™ technology according to the following steps:
1. Preparation of magnetic beads: biotin-labeled small molecule ligand and avidin-coated magnetic beads were allowed to interact at room temperature for 30 minutes, and then added with excess biotin, followed by washing with a blocking solution (1% BSA, 0.05% Tween 20, 1 mM DTT) to remove unbound ligand.
2. Binding reaction: in a 384 plate, 0.02 mL system, DNA-labeled protein, small molecule ligand-bound magnetic beads, and different concentrations of compound to be tested were mixed in a reaction solution (0.17×PBS, 0.05% Tween 20, 6 mM DTT) at room temperature with shaking for 1 hr, to which was added an eluant (1×PBS, 0.05% Tween 20) for elution. Magnetic beads were resuspended by an eluant (1×PBS, 0.05% Tween 20, 0.5 μM non-biotin-labeled small molecule ligand), and shaken at room temperature for 30 min before separating out the eluant.
3. Determination of Kd value: the content of protein in the above eluate was determined by qPCR. Eleven 3-fold dilution concentrations were determined for the compound to be tested, with 3 DMSO controls for each concentration, and the Kd value was obtained by curve fitting.

Toledo cells = assay: Growth inhibition of PIKfyve-mediated tumor cells by Cell Titer Glo method, Toledo; type: cell-based; settings: Homo sapiens, 120 h, CellTiter-Glo, 5 days of culture, read-out: Inhibition rate % (Toledo)
Procedure: (§6) IV. Determination of Growth Inhibition Rates of Compounds Against PIKfyve-Mediated Tumor Cells by Cell Titer Glo Method
(§7) 1. Cell plating: cells in logarithmic growth phase were counted and inoculated in 384-well plate.
(§8) 3. […] RLU was measured on PHERAstar Plus.

ST486 cells = assay: Growth inhibition of PIKfyve-mediated tumor cells by Cell Titer Glo method, ST486; type: cell-based; settings: Homo sapiens, 120 h, CellTiter-Glo, 5 days of culture, read-out: Inhibition rate % (ST486)
Procedure: as §6, §7, §8

JeKo-1 xenograft = assay: Xenograft model of non-Hodgkin's lymphoma cells (JeKo-1) in nude mice; type: in vivo; settings: 25 mg/kg once a day or twice a day
Procedure: 1. 4-6 weeks old female nude mice were injected subcutaneously with about 1×10^7 JeKo-1 cells;
2. When tumor volume (length×width×height×π/4) reached about 100 mm^3, the mice were randomly divided into four groups: control group, V-c-17 group with a dose of 25 mg/kg once a day, V-c-17 group with a dose of 25 mg/kg twice a day, and apilimod group with a dose of 25 mg/kg once a day, and the initial tumor volume was recorded.
3. The drug or the control solvent was administered intravenously on time every day, the tumor volume was measured every day, and the procedures were continued for 7 days;
as §5

Row | Kd (PIKfyve protein) [nM] | Compound | degree of vacuolation, 1 μM, 24 h (MDA-MB-231 cells) | degree of vacuolation, 1 μM, 48 h (MDA-MB-231 cells) | degree of vacuolation, 10 μM, 24 h (MDA-MB-231 cells) | degree of vacuolation, 10 μM, 48 h (MDA-MB-231 cells) | IC50 (JeKo-1 cells [1]) [nM] | immature cathepsin A and cathepsin D (Western Blot) (JeKo-1 cells [2]) | inhibition at 3.3 µM (Toledo cells) [%] | inhibition at 3.3 µM (ST486 cells) [%] | other results
1 |  | Cc1ccc(NC(=O)c2cccc(C(F)(F)F)c2)cc1Nc1cc(-c2cccnc2)nc2[nH]ccc12 [I-a-1] | +++ | +++ | +++ | +++ | 2040 |  |  |  | inhibition at 3.3 µM (A375): 94%; inhibition at 3.3 µM (SK-MEL-28): 64%; inhibition at 3.3 µM (SK-MEL-30): 61.9%; inhibition at 3.3 µM (A549): 65.3%; inhibition at 3.3 µM (MDA-MB-231): 48.4%; inhibition at 3.3 µM (MDA-MB-435S): 56.2%; inhibition at 3.3 µM (MCF-7): 44.2%; inhibition at 3.3 µM (HCT116): 55.8%; inhibition at 3.3 µM (BGC823): 54%; inhibition at 3.3 µM (HepG2): 64.8%; tumor volume (MDA-MB-231 xenograft; MDA-MB-231 xenograft mice, tail vein, 5 mg/kg, 20 mg/kg every day, FIG. 4a): effectively inhibit the increase of tumor volume, with good dose dependence; final tumor weight (MDA-MB-231 xenograft; MDA-MB-231 xenograft mice, tail vein, 5 mg/kg, 20 mg/kg every day, FIG. 4b): significantly smaller than that in the control group, with good dose dependence; tumor growth (MDA-MB-231 xenograft; MDA-MB-231 xenograft, nude mice, intravenous, 5 mg/kg and 20 mg/kg once a day, 12 days, FIG. 4): Effectively Inhibited Tumor Growth
2 |  | Cc1cccc(/C=N/Nc2cc(N3CCOCC3)nc(OCCc3ccccn3)n2)c1 [apilimod, reference compound] |  |  |  |  |  | immature cathepsins A and D gradually increase, with good dose dependence |  |  | 
3 | 640 | COc1ccc(C(=O)Nc2cccc(C(F)(F)F)c2)cc1Nc1nc(-c2cccnc2)c2[nH]ccc2n1 [V-c-17] | ++ | − | ++ | + | 743 | immature cathepsins A and D gradually increase, with good dose dependence; also recorded: immature cathepsin A and cathepsin D increased, and had good concentration dependence | 99.7 | 95.7 | tumor volume (JeKo-1 xenograft; JeKo-1 xenograft mice, tail vein, FIG. 5a): effectively inhibit the increase of tumor volume, with good dose dependence; final tumor weight (JeKo-1 xenograft; JeKo-1 xenograft mice, tail vein, FIG. 5b): significantly smaller than that in the control group, with good dose dependence; tumor growth (JeKo-1 xenograft; JeKo-1 xenograft, nude mice, intravenous, 7 days, FIG. 5): Effectively Inhibited Tumor Growth
4 | 13 | Cc1ccc(C(=O)Nc2cccc(OC(F)(F)F)c2)cc1Nc1nc(-c2cccnc2)c2[nH]ccc2n1 [V-c-8] | +++ | +++ | +++ | +++ |  |  | 96.3 | 51 | inhibition at 10 µM (JeKo-1 cells [1]; 10 μM, read-out: cell growth inhibition rate of compounds at 10 μM): 39%
